Measured values: patent publication US4400199A, “Thiolcarbamate compounds and their use as herbicides” (priority 1981, dated 1983)
Converted amounts (≈) assume the structure as drawn. “And” between values parts separate entries of the source, which are not always exact repeats. Equal entries are not always repeated.

System: barnyard grass
Test: Experiment 2: herbicidal effects against barnyard grass (pot test, granules)
Type: in vivo, Echinochloa crus-galli
Details: 150 g/10a., 2.5 leaf-stage, 25 days

Row | Compound | herbicidal activity (barnyard grass)
1 | CC1CCCCN1C(=O)SCCCCl (stereo not drawn) [Compound 12, reference compound] | 5 (more than 90%)
2 | CCSC(=O)N1CCCCCC1 [Compound 13, S-ethyl-hexahydro-1H-azepine-1-carbothioate, reference compound] | 3 (50 to 69%)

Same assay, conditions: 300 g/10a., 2.5 leaf-stage, 25 days

Row | Compound | herbicidal activity (barnyard grass)
3 | CC1CCCCN1C(=O)SCCCCl (stereo not drawn) [Compound 12, reference compound] | 5 (more than 90%)
4 | CCSC(=O)N1CCCCCC1 [Compound 13, S-ethyl-hexahydro-1H-azepine-1-carbothioate, reference compound] | 4 (70 to 89%)

Same assay, conditions: 600 g/10a., 2.5 leaf-stage, 25 days

Row | Compound | herbicidal activity (barnyard grass)
5 | CC1CCCCN1C(=O)SCCCCl (stereo not drawn) [Compound 12, reference compound] | 5 (more than 90%)
6 | CCSC(=O)N1CCCCCC1 [Compound 13, S-ethyl-hexahydro-1H-azepine-1-carbothioate, reference compound] | 5 (more than 90%)

System: paddy field weeds
Test: Experiment 2: herbicidal effects against paddy field weeds, overall
Type: in vivo
Details: compared with Molinate (Compound 13)

Row | Compound | herbicidal activity (in words)
7 | CC1CCCCN1C(=O)SCCCCl (stereo not drawn) [Compound 12, reference compound] | excellent herbicidal activities

System: rice plants
Test: not given
Details: in vivo

Row | Compound | harmful effects to rice plants (in words)
8 | CC1CCCCN1C(=O)SCCCCl (stereo not drawn) [Compound 12, reference compound] | without harmful effects to rice plants

System: not listed separately
Test: Experiment 4: subacute toxicity to fish
Type: in vivo, 2-year-old carps
Details: carp, water; 0.2 ppm; 3 weeks; read-out: Survival rate after 3 weeks
Experimental: (§1) With respect to the compounds according to the present invention and the comparative compounds listed in Table 4, there were conducted tests on subacute toxicity to 2-year-old carps having an average weight of 20 g.
(§2) Ten 2-year-old carps were released in each of 25-liter water tanks equipped with an air-blowing apparatus and acclimatized to the surroundings while feeding for 10 days. Water in each of the water tanks was continuously replaced with fresh water so that the residence time of water in the water tanks is 6 hours. Each test compound was added to a predetermined quantity of supply water to prepare a 0.2 ppm aqueous solution of each compound, and each of the aqueous solutions was continuously added to the water in the tank. After three weeks, the hematocrit values of all the survival carps were determined. The hematocrit value used herein is intended to mean a volume percentage of erythrocyte contained in the blood.

Row | Compound | survival at 504 h [%]
9 | CC1CCCCN1C(=O)SCCCCl (stereo not drawn) [Compound 12, reference compound] | 70
10 | CCSC(=O)N1CCCCCC1 [Compound 13, S-ethyl-hexahydro-1H-azepine-1-carbothioate, reference compound] | 50

System: carps
Test: Experiment 4: subacute toxicity to fish
Type: in vivo, 2-year-old carps
Details: 0.2 ppm; 3 weeks
Experimental: as §1, §2

Row | Compound | Average Hematocrit Value of survival fish [%] | subacute toxicity to carps (in words) | survival of carps (in words) | symptoms of anemia in carps (in words)
11 | CC1CCCCN1C(=O)SCCCCl (stereo not drawn) [Compound 12, reference compound] | 19 | high subacute toxicity to carps | extremely low | remarkable symptons of anemia
12 | CCSC(=O)N1CCCCCC1 [Compound 13, S-ethyl-hexahydro-1H-azepine-1-carbothioate, reference compound] | 25 | high subacute toxicity to carps | extremely low | remarkable symptons of anemia

Same assay, conditions: general statement

Row | Compound | subacute anemia symptoms in fish (in words)
13 | CCSC(=O)N1CCCCCC1 [Compound 13, S-ethyl-hexahydro-1H-azepine-1-carbothioate, reference compound] | subacute anemia symptoms in fish

System: broad-leaf weeds
Test: Experiment 2: herbicidal effects against broad-leaf weeds (pot test, granules)
Type: in vivo
Details: 150 g/10a., 25 days

Row | Compound | Herbicidal activity broad-leaf weeds
14 | CC1CCCCN1C(=O)SCCCCl (stereo not drawn) [Compound 12, reference compound] | 5 (more than 90%)
15 | CCSC(=O)N1CCCCCC1 [Compound 13, S-ethyl-hexahydro-1H-azepine-1-carbothioate, reference compound] | 1 (10 to 29%)

Same assay, conditions: 300 g/10a., 25 days

Row | Compound | Herbicidal activity broad-leaf weeds
16 | CC1CCCCN1C(=O)SCCCCl (stereo not drawn) [Compound 12, reference compound] | 5 (more than 90%)
17 | CCSC(=O)N1CCCCCC1 [Compound 13, S-ethyl-hexahydro-1H-azepine-1-carbothioate, reference compound] | 2 (30 to 49%)

Same assay, conditions: 600 g/10a., 25 days

Row | Compound | Herbicidal activity broad-leaf weeds
18 | CC1CCCCN1C(=O)SCCCCl (stereo not drawn) [Compound 12, reference compound] | 5 (more than 90%)
19 | CCSC(=O)N1CCCCCC1 [Compound 13, S-ethyl-hexahydro-1H-azepine-1-carbothioate, reference compound] | 3 (50 to 69%)

System: Hotarui (Scirpus juncoides)
Test: Experiment 2: herbicidal effects against Hotarui (pot test, granules)
Type: in vivo
Details: 150 g/10a., 25 days

Row | Compound | Herbicidal activity Hotarui (Scirpus juncoides)
20 | CC1CCCCN1C(=O)SCCCCl (stereo not drawn) [Compound 12, reference compound] | 4 (70 to 89%)
21 | CCSC(=O)N1CCCCCC1 [Compound 13, S-ethyl-hexahydro-1H-azepine-1-carbothioate, reference compound] | 0 (less than 10%)

Same assay, conditions: 300 g/10a., 25 days

Row | Compound | Herbicidal activity Hotarui (Scirpus juncoides)
22 | CC1CCCCN1C(=O)SCCCCl (stereo not drawn) [Compound 12, reference compound] | 5 (more than 90%)
23 | CCSC(=O)N1CCCCCC1 [Compound 13, S-ethyl-hexahydro-1H-azepine-1-carbothioate, reference compound] | 1 (10 to 29%)

Same assay, conditions: 600 g/10a., 25 days

Row | Compound | Herbicidal activity Hotarui (Scirpus juncoides)
24 | CC1CCCCN1C(=O)SCCCCl (stereo not drawn) [Compound 12, reference compound] | 5 (more than 90%)
25 | CCSC(=O)N1CCCCCC1 [Compound 13, S-ethyl-hexahydro-1H-azepine-1-carbothioate, reference compound] | 2 (30 to 49%)

System: rice plants
Test: Experiment 2: phytotoxicity to rice plants (pot test, granules)
Details: 150 g/10a., 25 days

Row | Compound | phytotoxicity rice plant
26 | CCSC(=O)N1CCCCCC1 [Compound 13, S-ethyl-hexahydro-1H-azepine-1-carbothioate, reference compound] | 0 (less than 10%)

Same assay, conditions: 300 g/10a., 25 days

Row | Compound | phytotoxicity rice plant
27 | CCSC(=O)N1CCCCCC1 [Compound 13, S-ethyl-hexahydro-1H-azepine-1-carbothioate, reference compound] | 0 (less than 10%)

Same assay, conditions: 600 g/10a., 25 days

Row | Compound | phytotoxicity rice plant
28 | CCSC(=O)N1CCCCCC1 [Compound 13, S-ethyl-hexahydro-1H-azepine-1-carbothioate, reference compound] | 2 (30 to 49%)

System: not listed separately
Test: Experiment 3: acute toxicity to fish
Type: in vivo, Black-carp fry
Details: carp, water; 24 hrs; read-out: Median lethal concentration TLm (24hrs)
Experimental: With respect to the compounds according to the present invention and the comparative compounds (Compound 10, Compound 12 and Compound 13), there were conducted tests on acute toxicity to carps.
In 25-liter water tanks made of glass was charged 20 liters of water. 12 Black-carp fry were released to each of the water tanks and bred while feeding for 7 days. Then, the whole quantity of water in each of the tanks was replaced with fresh water, and feeding to the carps was stopped. After three days, a prescribed amount of 1 weight % solution of a test compound in acetone was added to water in the water tank.
The number of survival fish in each tank was counted after 24 hours, 48 hours and 96 hours, successively.
The TLm (median tolerance limit=lethal concentration 50%) was determined by the Doudorff's method (Sewage & Ind. Wastes 23 (1951) 1380-1397).

Row | Compound | LC50 at 24 h [µg/mL]
29 | CC1CCCCN1C(=O)SCCCCl (stereo not drawn) [Compound 12, reference compound] | 1 (≈ 4.24 µM)

Same assay, conditions: carp, water; 48 hrs; read-out: Median lethal concentration TLm (48hrs)

Row | Compound | LC50 at 48 h [µg/mL]
30 | CC1CCCCN1C(=O)SCCCCl (stereo not drawn) [Compound 12, reference compound] | < 0.5
31 | CCSC(=O)N1CCCCCC1 [Compound 13, S-ethyl-hexahydro-1H-azepine-1-carbothioate, reference compound] | 34 (≈ 182 µM)

System: Mizugayatsuri (Cyperus serotinus)
Test: Experiment 2: herbicidal effects against Mizugayatsuri (pot test, granules)
Type: in vivo
Details: 150 g/10a., 25 days

Row | Compound | Herbicidal activity Mizugayatsuri (Cyperus serotinus)
32 | CC1CCCCN1C(=O)SCCCCl (stereo not drawn) [Compound 12, reference compound] | 4 (70 to 89%)
33 | CCSC(=O)N1CCCCCC1 [Compound 13, S-ethyl-hexahydro-1H-azepine-1-carbothioate, reference compound] | 0 (less than 10%)

Same assay, conditions: 300 g/10a., 25 days

Row | Compound | Herbicidal activity Mizugayatsuri (Cyperus serotinus)
34 | CC1CCCCN1C(=O)SCCCCl (stereo not drawn) [Compound 12, reference compound] | 4 (70 to 89%)
35 | CCSC(=O)N1CCCCCC1 [Compound 13, S-ethyl-hexahydro-1H-azepine-1-carbothioate, reference compound] | 1 (10 to 29%)

Same assay, conditions: 600 g/10a., 25 days

Row | Compound | Herbicidal activity Mizugayatsuri (Cyperus serotinus)
36 | CC1CCCCN1C(=O)SCCCCl (stereo not drawn) [Compound 12, reference compound] | 5 (more than 90%)
37 | CCSC(=O)N1CCCCCC1 [Compound 13, S-ethyl-hexahydro-1H-azepine-1-carbothioate, reference compound] | 1 (10 to 29%)

System: barnyard grass (Echinochloa crus-galli)
Test: Experiment 1: herbicidal effects against barnyard grass (pot test, emulsifiable concentrate)
Type: in vivo
Details: 1.5 leaf-stage of barnyard grass; 150 g/10a.; 25 days

Row | Compound | herbicidal activity (barnyard grass)
38 | CC1CCCCN1C(=O)SCCCCl (stereo not drawn) [Compound 12, reference compound] | 5 (more than 90%)

Same assay, conditions: 1.5 leaf-stage of barnyard grass; 300 g/10a.; 25 days

Row | Compound | herbicidal activity (barnyard grass)
39 | CC1CCCCN1C(=O)SCCCCl (stereo not drawn) [Compound 12, reference compound] | 5 (more than 90%)

Same assay, conditions: 1.5 leaf-stage of barnyard grass; 600 g/10a.; 25 days

Row | Compound | herbicidal activity (barnyard grass)
40 | CC1CCCCN1C(=O)SCCCCl (stereo not drawn) [Compound 12, reference compound] | 5 (more than 90%)

Same assay, conditions: 3 leaf-stage of barnyard grass; 150 g/10a.; 25 days

Row | Compound | herbicidal activity (barnyard grass)
41 | CC1CCCCN1C(=O)SCCCCl (stereo not drawn) [Compound 12, reference compound] | 5 (more than 90%)

Same assay, conditions: 3 leaf-stage of barnyard grass; 300 g/10a.; 25 days

Row | Compound | herbicidal activity (barnyard grass)
42 | CC1CCCCN1C(=O)SCCCCl (stereo not drawn) [Compound 12, reference compound] | 5 (more than 90%)

Same assay, conditions: 3 leaf-stage of barnyard grass; 600 g/10a.; 25 days

Row | Compound | herbicidal activity (barnyard grass)
43 | CC1CCCCN1C(=O)SCCCCl (stereo not drawn) [Compound 12, reference compound] | 5 (more than 90%)

Same assay, conditions: barnyard grass

Row | Compound | herbicidal activity (in words)
44 | CC1CCCCN1C(=O)SCCCCl (stereo not drawn) [Compound 12, reference compound] | sufficient herbicidal activities

Same assay, conditions: in vivo

Row | Compound | herbicidal activity (barnyard grass)
45 | CCSC(=O)N1CCCCCC1 [Compound 13, S-ethyl-hexahydro-1H-azepine-1-carbothioate, reference compound] | 5 (key: 5: more than 90%; 4: 70 to 89%; 3: 50 to 69%; 2: 30 to 49%; 10 to 29%; less than 10%) and 4 (key: 5: more than 90%; 4: 70 to 89%; 3: 50 to 69%; 2: 30 to 49%; 10 to 29%; less than 10%) and 3 (key: 5: more than 90%; 4: 70 to 89%; 3: 50 to 69%; 2: 30 to 49%; 10 to 29%; less than 10%)
